Source: patent US20130184338A1, “PHENYLPROPYL CARBAMATE DERIVATIVES FOR USE IN PREVENTING OR TREATING MULTIPLE SCLEROSIS” (Bio-Pharm Solutions Co., Ltd., priority 2011, published 2013)
Marks after values point to notes of the source that are not given here.

Tests used:
[1] = system: male mice (ICR); assay: Muscle relaxation: grip strength; assay type: in vivo; details: intraperitoneal; for ED50: Mus musculus, ip, at time of maximum effect, 50% of activity vs vehicle only, read-out: MR test ED50, III = Grip strength
Experimental: (§1) For testing, male mice (ICR) were purchased from ORIENT BIO INC. (Korea), divided into several groups with 6 mice in each group, and were adapted for 4-5 days. The mice having the weight ranging from 19 g to 26 g were employed for the test. The pharmacological effect of the test compounds on muscle relaxation was evaluated by Rotarod test, grip strength test, and muscular force (wire hang) test. All mice were adapted to the test environment at one hour before starting the tests. The pharmacological effects of all the test compounds were evaluated by administration through peritoneal cavity of the mice (10 ul/g, bw).
A grip strength test using the test animals' forelimbs was performed using an instrument equipped with triangle ring and designed so as to easily grip with the forelimbs of experimental animals, manufactured from Ugo Basile Inc. (Ugo Basile, Model47106, Italy). The test was conducted before and after administration of the compounds to evaluate the effects thereof. […] The mouse was made to grip the rod with its forelimbs, and its tail was pulled, where the force at which the mouse detached from the rod was recorded. The instrument indicated the force in grams. All of the mice were given […] for test, and the 3 highest values among the test opportunities were selected and the mean value was used as the test result. This experimentation was conducted according to the method described in the reference, ‘Nevins et al. (1993) Quantitative grip strength assessment as a means of evaluating muscle relaxation in mice. Psychopharmacol. 110: 92-96’.
(§2) The results of muscle relaxation activity of the phenyl carbamate compounds measured in above Experimental Examples 11.2 to 11.5 are shown in following Table 5.

[2] = system: male mice (ICR); assay: Muscle relaxation: wire hang; assay type: in vivo; details: intraperitoneal; for IV = Wire hang, effect (%) compared to control treated with vehicle only: concentration administered 100 mg/kg; for ED50: Mus musculus, at time of maximum effect, 50% of activity vs vehicle only, read-out: MR test ED50, IV = Wire hang
Experimental: as §1
This experimentation was conducted using a metal wire of 30 cm in length, which was suspended between two pillars at a height of about 40 cm from the bottom covered with a soft pad. […] Each mouse was made to grip the wire using two forelimbs, and the elapse time before the mouse fell off from the wire to the pad on the bottom was recorded in seconds. Each mouse was given 5 opportunities for this test at an interval of 2 minutes period. The highest 3 records among the test opportunities were selected and the mean value was used as the test result. This experimentation was conducted according to the method described in the reference, ‘Jacqueline N. Crawley (1999) Behavioral phenotyping of transgenic and knockout mice: experimental design and evaluation of general health, sensory functions, motor abilities, and specific behavioral tests. Brain Res. 835: 18-26’.
as §2

[3] = system: male mice (ICR); assay: Muscle relaxation: endurance time on rotarod rotating at accelerated speed; assay type: in vivo; details: Mus musculus, ip; intraperitoneal, at time of maximum effect; 50% of activity vs vehicle only; read-out: MR test ED50, I = Acc. Rotarod
Experimental: as §1
At 24 hours before testing, the mice to be tested were preliminarily trained for 5 minutes on a rod rotating at the rate of 6 revolutions per a minute. The pharmacological effect on muscle relaxation of the test compounds were evaluated by observing the mice on a rod for 5 minutes, where the rod was accelerated from 4 to 40 revolutions per a minute during the test time. The endurance time that each mouse endures on the acceleratedly rotated rod without falling off from the rod was recorded. As test time for evaluation, a maximum of 5 minutes was applied. […] This experimentation was conducted according to the method described in the reference, ‘Monville et al. (2006) Comparison of incremental and accelerating protocol of the rotarod test for the assessment of motor deficits in the 6-OHDA model. J. Neurosci. Meth. 158: 219-223’.
as §2

[4] = system: male ICR mice; assay: MES (Maximal Electroshock Seizure) test in mice; details: Mus musculus, po, read-out: MES test (po) Protection %
[5] = system: male mice (ICR); assay: Muscle relaxation: residence time on rotarod rotating at fixed speed (15 r.p.m.); assay type: in vivo; details: Mus musculus, ip, read-out: MR test ED50, II = Fixed 15 r.p.m. Rotarod

SMILES	ED50 [1] [mg/kg]	ED50 [2] [mg/kg]	further results
C[C@@H](OC(N)=O)[C@H](O)c1ccccc1F [Compound 64, 1-(2-fluorophenyl)-(R)-1-hydroxypropyl-(R)-2-carbamate]			III = Grip strength, effect (%) compared to control treated with vehicle only ([1]; concentration administered 120 mg/kg): 120^a (35.4%); IV = Wire hang, effect (%) compared to control treated with vehicle only [2]: 100^a (30.8%)
C[C@H](OC(N)=O)[C@@H](O)c1ccccc1F [Compound 63, 1-(2-fluorophenyl)-(S)-1-hydroxypropyl-(S)-2-carbamate]	118		IV = Wire hang, effect (%) compared to control treated with vehicle only [2]: 100^a (84.2%)
CC(C)C(OC(N)=O)C(O)c1ccccc1Cl (racemic) [Compound 11, 1-(2-chlorophenyl)-1-hydroxy-3-methyl-butyl-2-carbamate]	126		ED50 [3]: 102 mg/kg
C[C@@H](OC(N)=O)[C@H](O)c1ccc(Cl)cc1Cl [Compound 45, 1-(2,4-dichlorophenyl)-(R)-1-hydroxypropyl-(R)-2-carbamate]			responders at 200 mg/kg [4]: 0%
CCCNC(=O)OC(C)C(O)c1ccccc1Cl (racemic) [Compound 30, 1-(2-chlorophenyl)-1-hydroxypropyl-2-N-propylcarbamate]	65.4	31.7	responders at 200 mg/kg [4]: 25%
C[C@H](OC(=O)NC1CCCCC1)[C@@H](O)c1ccccc1Cl [Compound 19, 1-(2-chlorophenyl)-(S)-1-hydroxypropyl-(R)-2-N-cyclohexyl carbamate]	110	28.5	ED50 [3]: 95.3 mg/kg
C[C@@H](OC(N)=O)[C@H](O)c1ccccc1I [Compound 66, 1-(2-iodophenyl)-(R)-1-hydroxypropyl-(R)-2-carbamate]	46	76.3	ED50 [5]: 67.9 mg/kg
CC[C@@H](OC(N)=O)[C@H](O)c1ccccc1Cl [Compound 7, 1-(2-chlorophenyl)-(R)-1-hydroxybtyl-(R)-2-carbamate]	248		
CC(C)NC(=O)OC(C)C(O)c1ccccc1Cl (racemic) [Compound 31, 1-(2-chlorophenyl)-1-hydroxypropyl-2-N-isopropylcarbamate]	50.4	52.1	responders at 200 mg/kg [4]: 25%
CC[C@H](OC(N)=O)[C@@H](O)c1ccccc1I [Compound 67, 1-(2-iodophenyl)-(S)-1-hydroxybutyl-(S)-2-carbamate]	69.1	26.2	ED50 [5]: 30.2 mg/kg
C[C@@H](OC(=O)NC1CCCCC1)[C@H](O)c1ccccc1Cl [Compound 26, 1-(2-chlorophenyl)-(R)-1-hydroxypropyl-(R)-2-N-cyclohexyl carbamate]		63.8	
CCCNC(=O)O[C@H](C)[C@H](O)c1ccccc1Cl [Compound 23, 1-(2-chlorophenyl)-(R)-1-hydroxypropyl-(R)-2-N-propylcarbamate]	73.8	46	responders at 200 mg/kg [4]: 25%
CC(OC(=O)NC1CC1)C(O)c1ccccc1Cl (racemic) [Compound 32, 1-(2-chlorophenyl)-1-hydroxypropyl-2-N-cyclopropylcarbamate]	45.2	36.6	responders at 200 mg/kg [4]: 100%
CC(OC(=O)NC1CCCCC1)C(O)c1ccccc1Cl (racemic) [Compound 33, 1-(2-chlorophenyl)-1-hydroxypropyl-2-N-cyclohexylcarbamate]		74.6	
CCC(OC(N)=O)C(O)c1ccccc1Cl (racemic) [Compound 8, 1-(2-chlorophenyl)-1-hydroxybutyl-2-carbamate]	69.5		ED50 [3]: 50.6 mg/kg
CC(C)[C@H](OC(N)=O)[C@@H](O)c1ccccc1Cl [Compound 9, 1-(2-chlorophenyl)-(S)-1-hydroxy-3-methyl-butyl-(S)-2-carbamate]	104		
CC[C@H](OC(N)=O)[C@@H](O)c1ccccc1Cl [Compound 6, 1-(2-chlorophenyl)-(S)-1-hydroxybutyl-(S)-2-carbamate]	70.7		
C[C@H](OC(N)=O)[C@@H](O)c1ccccc1I [Compound 65, 1-(2-iodophenyl)-(S)-1-hydroxypropyl-(S)-2-carbamate]	42.9	23.4	ED50 [5]: 28 mg/kg
